The values that follow come from patent US20260083851A1 (AVILAR THERAPEUTICS, INC., priority 2022, published 2026).

The experiment has as its target T1, ASGP receptor (biotinylated ASGPR) (Homo sapiens, UniProt P07306).
T1 construct: biotin (biotinylated)
T1 sequence (P07306 1-291): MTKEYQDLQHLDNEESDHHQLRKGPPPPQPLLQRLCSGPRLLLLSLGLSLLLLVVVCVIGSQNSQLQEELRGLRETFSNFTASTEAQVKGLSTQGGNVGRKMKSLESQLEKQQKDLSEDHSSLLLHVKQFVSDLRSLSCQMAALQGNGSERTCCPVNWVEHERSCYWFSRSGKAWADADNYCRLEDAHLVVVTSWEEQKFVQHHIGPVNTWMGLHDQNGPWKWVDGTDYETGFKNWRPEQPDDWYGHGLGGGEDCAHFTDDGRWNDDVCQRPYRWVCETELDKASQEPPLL
The format is binding. The following applies: SPR, Biacore 8K, 25° C., Table 1C, read-out: ASGPR KD. For orientation: SPR reads the build-up and loss of mass on a sensor chip optically.

pKd: −log10 of the molar value. Like-named read-outs stand apart in the source and are kept apart here.

In the case of `O[C@@H]1[C@H](O)[C@@H](Nc2cccc(C(F)(F)F)n2)CO[C@@H]1COc1ccc(-c2ccccc2)cc1` [A196, (2R,3R,4R,5S)-2-(([1,1′-biphenyl]-4-yloxy)methyl)-5-((6-(trifluoromethyl)pyridin-2-yl)amino)tetrahydro-2H-pyran-3,4-diol], the negative-log Kd (pKd) was greater than 5.00.
For the compound `OC[C@H]1OC[C@H](Nc2ncc3nc[nH]c3n2)[C@@H](O)[C@H]1O` [A197, (2R,3R,4R,5S)-5-((9H-purin-2-yl)amino)-2-(hydroxymethyl)tetrahydro-2H-pyran-3,4-diol], the negative logarithm of the Kd (pKd) (numeric bound) is less than 4.52.
In the case of `O[C@@H]1[C@H](O)[C@@H](Oc2cccc(C(F)(F)F)n2)CO[C@@H]1COc1ccc(Br)c(F)c1` [A198, (2R,3R,4S,5S)-2-((4-bromo-3-fluorophenoxy)methyl)-5-((6-(trifluoromethyl)pyridin-2-yl)oxy)tetrahydro-2H-pyran-3,4-diol], the pKd was greater than 5.00.
Consider `O=C(O)c1ccc(CN2CCN(C[C@H]3OC[C@H](Nc4cncc(C(F)(F)F)n4)[C@@H](O)[C@H]3O)CC2)cc1` [A199, 4-((4-(((2R,3R,4R,5S)-3,4-dihydroxy-5-((6-(trifluoromethyl)pyrazin-2-yl)amino)tetrahydro-2H-pyran-2-yl)methyl)piperazin-1-yl)methyl)benzoic acid], for which the pKd was greater than 5.00.
As to `O[C@@H]1[C@H](O)[C@@H](Nc2cncc(C(F)(F)F)n2)CO[C@@H]1c1cn(C2CCNCC2)nn1` [A200, (2R,3R,4R,5S)-2-(1-(piperidin-4-yl)-1H-1,2,3-triazol-4-yl)-5-((6-(trifluoromethyl)pyrazin-2-yl)amino)tetrahydro-2H-pyran-3,4-diol], the negative logarithm of the Kd (pKd) was greater than 5.00.
Same read-out and setting: for `O[C@@H]1[C@H](O)[C@@H](Nc2cncc(C(F)(F)F)n2)CO[C@@H]1c1cn(-c2ccccc2)nn1` [A201, (2R,3R,4R,5S)-2-(1-phenyl-1H-1,2,3-triazol-4-yl)-5-((6-(trifluoromethyl)pyrazin-2-yl)amino)tetrahydro-2H-pyran-3,4-diol] the value was greater than 5.00; for `O[C@@H]1[C@H](O)[C@@H](Nc2cncc(C(F)(F)F)n2)CO[C@@H]1COc1ccc(-c2ccccc2)cc1` [A202, (2R,3R,4R,5S)-2-(([1,1′-biphenyl]-4-yloxy)methyl)-5-((6-(trifluoromethyl)pyrazin-2-yl)amino)tetrahydro-2H-pyran-3,4-diol], greater than 5.00; for `N#Cc1ncc(OC[C@H]2OC[C@H](Nc3cncc(C(F)(F)F)n3)[C@@H](O)[C@H]2O)cn1` [A203, 5-(((2R,3R,4R,5S)-3,4-dihydroxy-5-((6-(trifluoromethyl)pyrazin-2-yl)amino)tetrahydro-2H-pyran-2-yl)methoxy)pyrimidine-2-carbonitrile], greater than 5.00.
Still for that read-out and setting: for `O=C(O)c1ccc(CN2CCN(C[C@H]3OC[C@H](Nc4cncc(C(F)(F)F)n4)[C@@H](O)[C@H]3O)CC2)cc1F` [A204, 4-((4-(((2R,3R,4R,5S)-3,4-dihydroxy-5-((6-(trifluoromethyl)pyrazin-2-yl)amino)tetrahydro-2H-pyran-2-yl)methyl)piperazin-1-yl)methyl)-2-fluorobenzoic acid] the value was greater than 5.00; for `O=C(O)c1ccc(CN2CCN(C[C@H]3OC[C@H](Nc4cncc(C(F)(F)F)n4)[C@@H](O)[C@H]3O)CC2)nn1` [A205, 6-((4-(((2R,3R,4R,5S)-3,4-dihydroxy-5-((6-(trifluoromethyl)pyrazin-2-yl)amino)tetrahydro-2H-pyran-2-yl)methyl)piperazin-1-yl)methyl)pyridazine-3-carboxylic acid], greater than 5.00.
For `O=C(O)CN1CCC(N2CCN(C[C@H]3OC[C@H](Nc4cncc(C(F)(F)F)n4)[C@@H](O)[C@H]3O)CC2)CC1` [A206, 2-(4-(4-(((2R,3R,4R,5S)-3,4-dihydroxy-5-((6-(trifluoromethyl)pyrazin-2-yl)amino)tetrahydro-2H-pyran-2-yl)methyl)piperazin-1-yl)piperidin-1-yl)acetic acid], the pKd is greater than 5.00.
On the same count and under the same terms, for `O=C(O)c1ccc(N2CCN(C[C@H]3OC[C@H](Nc4cncc(C(F)(F)F)n4)[C@@H](O)[C@H]3O)CC2)nn1` [A207, 6-(4-(((2R,3R,4R,5S)-3,4-dihydroxy-5-((6-(trifluoromethyl)pyrazin-2-yl)amino)tetrahydro-2H-pyran-2-yl)methyl)piperazin-1-yl)pyridazine-3-carboxylic acid] the value was greater than 5.00.
For the compound `OC[C@H]1O[C@@H](c2ccccc2)[C@H](Oc2cccc(C(F)(F)F)n2)[C@@H](O)[C@H]1O` [A208, (2R,3R,4S,5R,6S)-2-(hydroxymethyl)-6-phenyl-5-((6-(trifluoromethyl)pyridin-2-yl)oxy)tetrahydro-2H-pyran-3,4-diol], the negative-log Kd (pKd) (numeric bound) is less than 4.52.
With `O[C@@H]1[C@H](O)[C@@H](Nc2cncc(C(F)(F)F)n2)CO[C@@H]1Cc1nnc(-c2ccccc2)o1` [A209, (2R,3R,4R,5S)-2-((5-phenyl-1,3,4-oxadiazol-2-yl)methyl)-5-((6-(trifluoromethyl)pyrazin-2-yl)amino)tetrahydro-2H-pyran-3,4-diol], the negative logarithm of the Kd (pKd) is greater than 5.00.
Same read-out and setting: the figure for `O[C@@H]1[C@H](O)[C@@H](Oc2cncc(C(F)(F)F)n2)CO[C@@H]1COc1ccc(Br)c(F)c1` [A210, (2R,3R,4S,5S)-2-((4-bromo-3-fluorophenoxy)methyl)-5-((6-(trifluoromethyl)pyrazin-2-yl)oxy)tetrahydro-2H-pyran-3,4-diol] is greater than 5.00; for `O[C@@H]1[C@H](O)[C@@H](Nc2cncc(C(F)(F)F)n2)CO[C@@H]1COc1cccnn1` [A212, (2R,3R,4R,5S)-2-((pyridazin-3-yloxy)methyl)-5-((6-(trifluoromethyl)pyrazin-2-yl)amino)tetrahydro-2H-pyran-3,4-diol] it is greater than 5.00; for `CC(C)(C)OC(=O)N1CCN(c2ccc(OC[C@H]3OC[C@H](Oc4cccc(C(F)(F)F)n4)[C@@H](O)[C@H]3O)cc2F)CC1` [A213, tert-butyl 4-(4-(((2R,3R,4S,5S)-3,4-dihydroxy-5-((6-(trifluoromethyl)pyridin-2-yl)oxy)tetrahydro-2H-pyran-2-yl)methoxy)-2-fluorophenyl) piperazine-1-carboxylate] it is greater than 5.00.
Turning to `C#C[C@H]1O[C@H](C)[C@H](O)[C@H](O)[C@H]1Oc1cccc(C(F)(F)F)n1` [A214, (2R,3R,4S,5R,6R)-6-ethynyl-2-methyl-5-((6-(trifluoromethyl)pyridin-2-yl)oxy)tetrahydro-2H-pyran-3,4-diol], the negative logarithm of the Kd (pKd) was greater than 5.00.
In the case of `O=C(O)c1ccc(-c2ccc(OC[C@H]3OC[C@H](Nc4cncc(C(F)(F)F)n4)[C@@H](O)[C@H]3O)cc2)cc1` [A215, 4′-(((2R,3R,4R,5S)-3,4-dihydroxy-5-((6-(trifluoromethyl)pyrazin-2-yl)amino)tetrahydro-2H-pyran-2-yl)methoxy)-[1,1′-biphenyl]-4-carboxylic acid], the pKd is greater than 5.00.
With `O[C@@H]1[C@H](O)[C@@H](Oc2cccc(C(F)(F)F)n2)CO[C@@H]1COc1cccnn1` [A216, (2R,3R,4S,5S)-2-((pyridazin-3-yloxy)methyl)-5-((6-(trifluoromethyl)pyridin-2-yl)oxy)tetrahydro-2H-pyran-3,4-diol], the negative logarithm of the Kd (pKd) is greater than 5.00.
As to `C[C@H]1O[C@H](c2cn(C3CCN(C(=O)OC(C)(C)C)CC3)nn2)[C@H](Oc2cccc(C(F)(F)F)n2)[C@@H](O)[C@H]1O` [A217, tert-butyl 4-(4-((2R,3R,4S,5R,6R)-4,5-dihydroxy-6-methyl-3-((6-(trifluoromethyl)pyridin-2-yl)oxy)tetrahydro-2H-pyran-2-yl)-1H-1,2,3-triazol-1-yl)piperidine-1-carboxylate], the negative logarithm of the Kd (pKd) was greater than 5.00.
Take `C[C@H]1O[C@H](c2cn(C3CCNCC3)nn2)[C@H](Oc2cccc(C(F)(F)F)n2)[C@@H](O)[C@H]1O` [A218, (2R,3R,4S,5R,6R)-2-methyl-6-(1-(piperidin-4-yl)-1H-1,2,3-triazol-4-yl)-5-((6-(trifluoromethyl)pyridin-2-yl)oxy)tetrahydro-2H-pyran-3,4-diol]: the negative-log Kd (pKd) is greater than 5.00.
Consider `C#C[C@H]1OC[C@H](Oc2cccc(C(F)(F)F)n2)[C@@H](O)[C@H]1O` [A219, (2R,3R,4S,5S)-2-ethynyl-5-((6-(trifluoromethyl)pyridin-2-yl)oxy)tetrahydro-2H-pyran-3,4-diol], for which the pKd is greater than 5.00.
Regarding `CC(C)(C)OC(=O)N1CCC(n2cc([C@H]3OC[C@H](Oc4cccc(C(F)(F)F)n4)[C@@H](O)[C@H]3O)nn2)CC1` [A220, tert-butyl 4-(4-((2R,3R,4S,5S)-3,4-dihydroxy-5-((6-(trifluoromethyl)pyridin-2-yl)oxy)tetrahydro-2H-pyran-2-yl)-1H-1,2,3-triazol-1-yl)piperidine-1-carboxylate], the negative-log Kd (pKd) was greater than 5.00.
`O=C(O)c1ccc(-c2ccc(OC[C@H]3OC[C@H](Oc4cccc(C(F)(F)F)n4)[C@@H](O)[C@H]3O)cc2)nn1` [A221, 6-(4-(((2R,3R,4S,5S)-3,4-dihydroxy-5-((6-(trifluoromethyl)pyridin-2-yl)oxy)tetrahydro-2H-pyran-2-yl)methoxy)phenyl)pyridazine-3-carboxylic acid]: the pKd is greater than 5.00.
With `OCc1cnc(OC[C@H]2OC[C@H](Nc3cncc(C(F)(F)F)n3)[C@@H](O)[C@H]2O)nc1` [A222, (2R,3R,4R,5S)-2-(((5-(hydroxymethyl)pyrimidin-2-yl)oxy)methyl)-5-((6-(trifluoromethyl)pyrazin-2-yl)amino)tetrahydro-2H-pyran-3,4-diol], the pKd was greater than 5.00.
`O=C(O)c1ccc(N2CCN(C[C@H]3OC[C@H](Nc4cncc(C(F)(F)F)n4)[C@@H](O)[C@H]3O)CC2)cc1` [A223, 4-(4-(((2R,3R,4R,5S)-3,4-dihydroxy-5-((6-(trifluoromethyl)pyrazin-2-yl)amino)tetrahydro-2H-pyran-2-yl)methyl)piperazin-1-yl) benzoic acid]: the pKd was greater than 5.00.

In general, pKd refers to the Kd on a negative log10 scale, so that one unit is a factor of ten.
